According to patent publication US4603217A, “Ester substituted alkyl-2-(2,6-dichloroanilino)phenyl acetates” (priority 1983, dated 1986):

Assays:
[1] = potentiating effect on thiopental-induced sleep in mice; assay type: in vivo, male ddY mice; conditions: mouse, in vivo, po
Experimental: (§1) Effect on central nervous system, which is another side effect of IM, was investigated according to the potentiating effect on thiopental-induced sleep in mice as follows: Male ddY mice weighing 20 to 24 g were subjected to fasting for 15 hrs. […] At 30 mins after the administration, thiopental sodium was injected intravenously to each of the mice in an amount of 35 mg/l kg body weight, and then, the sleeping time was observed. When the sleeping time of the mice to which the Test Compound was administered was longer than 2 times that of the control to which only Tween-80 was administered, the given Test Compound was judged to be effective on thiopental-induced sleep potentiating effect.

[2] = test system: thiopental-induced sleep; assay: as above; assay type: in vivo, male ddY mice; conditions: mouse, in vivo
Experimental: as §1

[3] = in vivo; conditions: mouse, po
[4] = in vivo; conditions: rat, po
Experimental: Gastrointestinal ulcer formation action, which is a principal side effect of an acid anti-inflammatory drug, was investigated according to the method of Okabe et al [cf. […] The compounds of the present invention, IM, DF and acemethacin were suspended in 5% Tween-80 solution and administered orally 1 ml/100 g body weight to the rats, respectively. At 6 hrs after the administration, the state of glandstomach was observed by means of a dissecting microscope whether the ulcer having a diameter more than 1 mm was generated or not.

[5] = test system: ultraviolet erythema; assay: inhibition action for ultraviolet erythema; assay type: in vivo, male Hartley guinea pigs; set-up: 2 hs after the irradiation, Average ± standard error / 3 hs after the irradiation, Average ± standard error / 5 hs after the irradiation, Average ± standard error: scale not given here; 2 hs after the irradiation, Rate for inhibition / 3 hs after the irradiation, Rate for inhibition / 5 hs after the irradiation, Rate for inhibition: unit not given here; conditions: guinea pigs; for 2 hs after the irradiation, Average ± standard error / 2 hs after the irradiation, Rate for inhibition: 2 hs after irradiation; for 3 hs after the irradiation, Average ± standard error / 3 hs after the irradiation, Rate for inhibition: 3 hs after irradiation; for 5 hs after the irradiation, Average ± standard error / 5 hs after the irradiation, Rate for inhibition: 5 hs after irradiation
Experimental: With respect to Compounds 1 to 3, 15 and 21 which are especially useful as an anti-inflammatory drug, IM and DF, inhibition action for ultraviolet erythema was investigated according to the method of Adames et al [cf. Nature, London, 181, 773 (1958)] using guinea pigs as follows: Male Hartley guinea pigs weighing 250 to 350 g were shaved at their sides the day before and two hrs before the ultraviolet irradiation. To the guinea pigs were administered orally Compounds 1 to 3, 15 and 21, IM and DF in amounts as described in Table 2, respectively. To the control group was administered orally only Tween-80. At 1 hr after the time of administration, the guinea pigs were irradiated at their shaved sides by ultraviolet beam for 40 seconds.
The reaction of the ultraviolet erythema was evaluated at 2 hrs, 3 hrs and 5 hrs after irradiation according to the method of Winder et al [cf. Arch. Int. Pharmacodyn., 116, 261 (1958)]. […] Compounds 1 and 2 show a duration of the pharmacological effect over 5 hrs, contrary to that IM has a duration of 2 hrs.

[6] = Rate of hydrolysis in rat plasma; assay type: in vitro ADME; conditions: in 1 ml of plasma rat (37° C., incubation for 1 hr)
Experimental: **in 1 ml of plasma rat (37° C., incubation for 1 hr)

[7] = test system: carrageenan edema; assay: inhibition test of carrageenan edema employing a foot-pad edema method; assay type: in vivo, male Wister rats; conditions: Rattus norvegicus; male Wister rats, foot-pad edema; read-out: ED50 for inhibition for carrageenan edema
Text: Anti-inflammatory action was investigated according to the method of Winter et al [cf. Pro. Soc. Exp. Biol. Med., 111, 544 (1962)] by the inhibition test of carrageenan edema employing a foot-pad edema method using carrageenan as an irritating agent and male Wister rats weighing 130 to 170 g.

COc1ccc2c(c1)c(CC(=O)OCCOC(C)=O)c(C)n2C(=O)c1ccc(Cl)cc1 [Compound 3, 2-(Acetoxy)ethyl[1-(p-chlorobenzoyl)-5-methoxy-2-methyl-3-indolyl]acetate]
ED50 [1]: 600 mg/kg | potentiating effect on thiopental-induced sleep relative to IM [2]: 1/5.7 | LD50 [3]: 65 mg/kg | TD50 at 6 h [4]: 15 mg/kg | 2 hs after the irradiation, Average ± standard error ([5]; 3 mg/kg orally): 0.5 ± 0.224 | 2 hs after the irradiation, Rate for inhibition ([5]; 3 mg/kg orally): 81.3 | 3 hs after the irradiation, Average ± standard error ([5]; 3 mg/kg orally): 2.5 ± 0.224 | 3 hs after the irradiation, Rate for inhibition ([5]; 3 mg/kg orally): 11.7 | 5 hs after the irradiation, Average ± standard error ([5]; 3 mg/kg orally): 2.83 ± 0.167 | 5 hs after the irradiation, Rate for inhibition ([5]; 3 mg/kg orally): 0 | 2 hs after the irradiation, Average ± standard error ([5]; 10 mg/kg orally): 0.67 ± 0.333 | 2 hs after the irradiation, Rate for inhibition ([5]; 10 mg/kg orally): 74.9 | 3 hs after the irradiation, Average ± standard error ([5]; 10 mg/kg orally): 2.3 ± 0.211 | 3 hs after the irradiation, Rate for inhibition ([5]; 10 mg/kg orally): 18.7 | 5 hs after the irradiation, Average ± standard error ([5]; 10 mg/kg orally): 2.50 ± 0.224 | 5 hs after the irradiation, Rate for inhibition ([5]; 10 mg/kg orally): 11.7 | metabolised at 1 h [6]: 97.3% | ED50 [7]: 6 mg/kg
